# Calls of active or inactive are those of the source.
# Experiments:
# [1] = target: Induced myeloid leukemia cell differentiation protein Mcl-1 (Homo sapiens, UniProt Q07820); format: functional
# Cytochrome P450 2C19 = Cytochrome P450 2C19 (Homo sapiens, UniProt P33261); test: Cytochrome panel assay with activity outcomes. Panel member name: p450-cyp2c19 Compounds with AC50 equal or less than 10 uM are considered active; format: functional; conditions: read-out: AC50
# Cytochrome P450 2C9 = Cytochrome P450 2C9 (Homo sapiens, UniProt P11712)
# Cytochrome P450 2C9, sequence (P11712 whole entry): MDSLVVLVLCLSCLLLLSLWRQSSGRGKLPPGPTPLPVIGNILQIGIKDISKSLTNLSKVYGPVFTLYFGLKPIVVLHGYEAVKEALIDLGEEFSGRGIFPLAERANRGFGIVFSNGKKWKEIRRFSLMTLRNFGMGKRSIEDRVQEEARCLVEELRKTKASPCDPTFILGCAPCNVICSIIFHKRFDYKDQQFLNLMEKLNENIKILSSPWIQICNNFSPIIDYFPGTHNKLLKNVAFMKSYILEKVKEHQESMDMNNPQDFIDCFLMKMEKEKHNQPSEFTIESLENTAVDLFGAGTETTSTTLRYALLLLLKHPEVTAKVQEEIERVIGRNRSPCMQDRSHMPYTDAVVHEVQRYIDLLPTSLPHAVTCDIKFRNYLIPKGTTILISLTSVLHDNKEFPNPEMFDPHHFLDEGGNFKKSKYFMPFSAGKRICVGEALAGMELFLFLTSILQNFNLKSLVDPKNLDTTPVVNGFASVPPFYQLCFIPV
# [2] = activation of miR-122 Renilla sensor silencing – cell-based, Huh7 psiCHECK-miR122, Renilla luciferase, cherry-picked, dose response (AID 651956); format: functional;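 further: huh7 hepatoma cells stably carrying a psiCHECK-2 miR-122 sensor plasmid; renilla luciferase signal reporting endogenous miR-122 activity after 48 h compound exposure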
# Protein skinhead-1 = target: T1, Protein skinhead-1 (Caenorhabditis elegans, UniProt P34707); format: functional
# T1 sequence (P34707 whole entry): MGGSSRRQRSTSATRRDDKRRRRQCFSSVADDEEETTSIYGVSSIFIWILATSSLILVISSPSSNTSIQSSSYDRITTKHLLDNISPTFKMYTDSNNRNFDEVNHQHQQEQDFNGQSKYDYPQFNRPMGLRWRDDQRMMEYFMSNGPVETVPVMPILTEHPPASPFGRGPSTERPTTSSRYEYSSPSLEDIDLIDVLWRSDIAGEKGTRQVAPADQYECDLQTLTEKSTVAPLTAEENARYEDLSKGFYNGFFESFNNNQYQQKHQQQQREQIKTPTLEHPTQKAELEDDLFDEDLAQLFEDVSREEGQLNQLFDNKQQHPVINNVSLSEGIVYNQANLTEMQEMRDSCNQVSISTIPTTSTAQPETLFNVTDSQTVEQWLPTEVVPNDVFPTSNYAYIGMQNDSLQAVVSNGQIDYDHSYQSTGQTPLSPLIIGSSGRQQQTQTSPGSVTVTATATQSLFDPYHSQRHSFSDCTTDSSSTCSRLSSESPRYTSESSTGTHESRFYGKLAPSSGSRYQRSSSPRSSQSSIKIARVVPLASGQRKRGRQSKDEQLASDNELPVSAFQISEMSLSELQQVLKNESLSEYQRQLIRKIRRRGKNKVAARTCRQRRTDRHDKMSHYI
# Vero = test: cells; format: functional; conditions: Chlorocebus sabaeus
# [3] = DRD fibroblast viability loss – cell-based, non-viral oncogenic, luminescence, dose response (AID 1934); format: functional; conditions: Homo sapiens
# BJ [4] = test: cells; format: functional, cell-based; conditions: Homo sapiens
# [5] = Luminescence Cell-Based Dose Retest to Confirm Inhibitors of Cancer Stem Cells. [Related pubchem assays (depositor defined):AID2717, AID2721]; format: functional; conditions: Homo sapiens
# BJ [6] = test: BJ-TERT-LT-ST fibroblast viability loss – cell-based, RAS-independent, luminescence, dose response (AID 1935); format: functional; conditions: Homo sapiens;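 further: BJ fibroblasts immortalized with TERT plus LT and ST oncogenes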
# BJ [7] = test: BJ-TERT fibroblast viability loss – cell-based, RAS-independent, luminescence, dose response (AID 1933); format: functional; conditions: Homo sapiens
# Cytochrome P450 3A4 = Cytochrome P450 3A4 (Homo sapiens, UniProt P08684);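 further: CYP3A4 tested as one member of a cytochrome P450 panel screen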
# Cytochrome P450 3A4, sequence (P08684 whole entry): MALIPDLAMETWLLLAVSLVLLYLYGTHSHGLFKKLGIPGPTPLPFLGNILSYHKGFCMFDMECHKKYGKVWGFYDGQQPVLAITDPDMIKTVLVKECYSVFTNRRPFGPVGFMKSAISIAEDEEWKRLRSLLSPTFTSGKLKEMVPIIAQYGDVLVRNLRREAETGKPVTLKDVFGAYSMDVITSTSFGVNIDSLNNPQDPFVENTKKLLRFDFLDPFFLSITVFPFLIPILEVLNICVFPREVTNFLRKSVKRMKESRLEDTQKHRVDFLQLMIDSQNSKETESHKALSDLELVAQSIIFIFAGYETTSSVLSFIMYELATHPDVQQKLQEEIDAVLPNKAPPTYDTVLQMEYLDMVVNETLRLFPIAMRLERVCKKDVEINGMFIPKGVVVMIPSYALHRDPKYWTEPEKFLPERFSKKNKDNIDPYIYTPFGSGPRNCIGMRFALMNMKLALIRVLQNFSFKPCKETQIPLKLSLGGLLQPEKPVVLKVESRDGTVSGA
# Cytochrome P450 2D6 = Cytochrome P450 2D6 (Homo sapiens, UniProt P10635);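 further: CYP2D6 member of a cytochrome P450 panel assay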
# Cytochrome P450 2D6, sequence (P10635 whole entry): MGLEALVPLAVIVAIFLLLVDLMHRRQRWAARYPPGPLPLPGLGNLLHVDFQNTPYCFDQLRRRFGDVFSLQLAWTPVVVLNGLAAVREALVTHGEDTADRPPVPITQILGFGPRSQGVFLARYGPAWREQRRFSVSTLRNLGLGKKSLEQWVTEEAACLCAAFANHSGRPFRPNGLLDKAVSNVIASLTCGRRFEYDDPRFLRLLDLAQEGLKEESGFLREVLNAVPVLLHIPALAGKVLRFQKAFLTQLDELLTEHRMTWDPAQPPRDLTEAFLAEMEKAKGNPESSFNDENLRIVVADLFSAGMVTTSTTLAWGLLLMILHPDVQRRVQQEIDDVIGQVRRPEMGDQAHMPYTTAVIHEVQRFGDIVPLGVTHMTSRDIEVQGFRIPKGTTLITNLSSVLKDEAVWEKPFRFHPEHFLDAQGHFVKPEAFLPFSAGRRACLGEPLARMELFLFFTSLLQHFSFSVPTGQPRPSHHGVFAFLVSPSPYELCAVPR
# [8] = target: T2, Heat shock factor protein 1 (Mus musculus, UniProt P38532); test: decrease of HSF1-responsive luciferase luminescence – cell-based, NIH3T3, dose retest, confirmation (AID 2382); format: functional;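 further: NIH3T3 fibroblasts with HSF1-driven luciferase reporter stressed by proteasome inhibitor MG132; luminescence from HSF1-driven luciferase expression after 8 hours of MG132 stress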
# T2 sequence (P38532 whole entry): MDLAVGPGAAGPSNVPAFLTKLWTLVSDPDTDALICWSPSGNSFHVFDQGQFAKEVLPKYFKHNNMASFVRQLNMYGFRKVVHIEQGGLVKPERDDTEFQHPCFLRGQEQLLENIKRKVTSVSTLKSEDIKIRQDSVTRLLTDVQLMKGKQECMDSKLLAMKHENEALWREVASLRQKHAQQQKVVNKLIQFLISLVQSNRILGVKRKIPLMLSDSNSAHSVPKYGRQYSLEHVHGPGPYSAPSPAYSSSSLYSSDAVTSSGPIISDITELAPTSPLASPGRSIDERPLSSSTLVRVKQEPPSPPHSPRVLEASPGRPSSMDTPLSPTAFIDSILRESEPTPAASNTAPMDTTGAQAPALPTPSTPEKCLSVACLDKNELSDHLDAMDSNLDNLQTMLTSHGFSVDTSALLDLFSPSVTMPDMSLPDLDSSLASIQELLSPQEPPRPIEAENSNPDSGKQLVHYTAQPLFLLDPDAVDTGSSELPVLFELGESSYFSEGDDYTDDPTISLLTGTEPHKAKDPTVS
# [9] = target: Heat shock protein HSP 90-alpha (Homo sapiens, UniProt P07900); format: functional, organism-based
# Paired box protein Pax-8 = Paired box protein Pax-8 (Homo sapiens, UniProt Q06710); test: PAX8 transcriptional activity inhibition in RMG-I – RMG-I cells, luciferase, cherry-pick, dose response (AID 687027); format: functional, cell-based;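 further: luciferase reporter driven by Pax8 target thyroperoxidase promoter measured by SteadyGlo luminescence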
# Paired box protein Pax-8, sequence (Q06710 whole entry, the tested form may be a part): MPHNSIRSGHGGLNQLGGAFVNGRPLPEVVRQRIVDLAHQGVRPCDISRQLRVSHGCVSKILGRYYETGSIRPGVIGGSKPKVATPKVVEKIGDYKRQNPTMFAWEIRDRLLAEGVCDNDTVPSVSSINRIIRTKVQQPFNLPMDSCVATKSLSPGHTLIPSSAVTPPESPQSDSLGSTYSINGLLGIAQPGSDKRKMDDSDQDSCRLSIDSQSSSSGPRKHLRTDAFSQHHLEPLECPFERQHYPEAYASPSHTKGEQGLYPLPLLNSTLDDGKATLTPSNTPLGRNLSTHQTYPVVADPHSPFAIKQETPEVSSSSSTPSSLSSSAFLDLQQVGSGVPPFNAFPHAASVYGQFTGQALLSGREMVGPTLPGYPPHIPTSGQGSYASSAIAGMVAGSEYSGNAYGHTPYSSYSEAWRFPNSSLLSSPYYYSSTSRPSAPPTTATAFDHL
# [10] = blockers of HIV-1 envelope-mediated cell-cell fusion – cherry-pick, dose response (AID 652057); format: functional, cell-based
# [11] = blockers of HIV-1 ZM109 envelope-driven cell-cell fusion – HeLa effector, CEM target cells, luciferase, cherry-pick, dose response (AID 652058); format: functional, cell-based;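 further: luciferase signal from HIV-1 Env mediated cell-cell fusion of effector and target cells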
# [12] = HIV-1 AD8 envelope cell-cell fusion blockers – cherry-pick, dose response (AID 652062); format: functional, cell-based;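 further: luciferase signal from cell-cell fusion driven by HIV-1 clade B AD8 Env; potency is for inhibitors of fusion seen as a drop in luminescence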
# [13] = off-target signal loss in HeLa-CEM21 co-culture – HeLa F-luc CTL cells, cherry-picked, counter-screen for HIV-1 Env fusion inhibitor project, dose response (AID 652040); format: functional, cell-based;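 further: potency for signal decrease marking cytotoxic or nonspecific inhibition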
# [14] = intracellular Trypanosoma cruzi inhibitors in host cells – cell-based, plate reader, cherry-pick samples, set 3, dose response (AID 651818); format: functional;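 further: compounds incubated with infected cells for about four days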
# [15] = viability of uninfected HEp-2 cells – cell-based, HTS, cytotoxicity control for RSV inhibitor project, dose response (AID 2410); format: functional; conditions: human respiratory syncytial virus
# Aminopeptidase N = target: T3, Aminopeptidase N (Plasmodium falciparum FcB1/Columbia, UniProt O96935); test: malaria alanyl aminopeptidase activity blockers – biochemical, fluorogenic H-Leu-NHMec substrate, 1536-well (AID 1445); parameters: species or system Plasmodium falciparum 3D7, 3D7
# T3 sequence (O96935 whole entry): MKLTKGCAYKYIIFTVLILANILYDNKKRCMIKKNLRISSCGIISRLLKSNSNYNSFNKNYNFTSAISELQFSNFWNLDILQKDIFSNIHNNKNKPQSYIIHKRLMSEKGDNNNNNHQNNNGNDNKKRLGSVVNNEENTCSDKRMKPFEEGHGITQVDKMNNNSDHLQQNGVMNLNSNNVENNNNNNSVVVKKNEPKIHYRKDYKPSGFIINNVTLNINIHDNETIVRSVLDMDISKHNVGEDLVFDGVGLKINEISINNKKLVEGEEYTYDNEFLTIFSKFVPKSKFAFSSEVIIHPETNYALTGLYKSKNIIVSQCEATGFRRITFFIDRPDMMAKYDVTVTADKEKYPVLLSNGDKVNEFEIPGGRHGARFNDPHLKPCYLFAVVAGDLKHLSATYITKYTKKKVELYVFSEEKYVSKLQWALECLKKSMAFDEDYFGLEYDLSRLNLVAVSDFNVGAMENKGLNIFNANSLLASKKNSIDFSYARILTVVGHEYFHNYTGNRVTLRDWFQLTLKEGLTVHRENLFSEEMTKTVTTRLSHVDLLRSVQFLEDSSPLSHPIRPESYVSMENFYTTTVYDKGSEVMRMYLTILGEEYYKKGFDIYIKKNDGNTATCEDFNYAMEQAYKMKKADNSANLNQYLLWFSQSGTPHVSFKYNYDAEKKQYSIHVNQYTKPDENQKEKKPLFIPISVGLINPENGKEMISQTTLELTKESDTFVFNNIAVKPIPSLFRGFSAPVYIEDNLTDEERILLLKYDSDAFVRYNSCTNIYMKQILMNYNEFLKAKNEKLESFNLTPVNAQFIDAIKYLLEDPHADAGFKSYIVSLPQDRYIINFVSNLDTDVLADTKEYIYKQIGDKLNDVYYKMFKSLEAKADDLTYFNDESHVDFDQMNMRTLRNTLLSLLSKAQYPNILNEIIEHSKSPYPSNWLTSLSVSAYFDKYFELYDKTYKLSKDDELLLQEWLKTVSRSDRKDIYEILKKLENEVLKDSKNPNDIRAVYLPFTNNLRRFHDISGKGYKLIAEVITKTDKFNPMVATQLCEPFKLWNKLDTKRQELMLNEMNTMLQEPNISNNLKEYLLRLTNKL
# Large T antigen = Large T antigen (Simian virus 40, UniProt P03070); format: functional, Betapolyomavirus macacae;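 further: Confirmatory-stage PubChem screen for compounds that inhibit SV40 T antigen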
# Large T antigen, sequence (P03070 whole entry): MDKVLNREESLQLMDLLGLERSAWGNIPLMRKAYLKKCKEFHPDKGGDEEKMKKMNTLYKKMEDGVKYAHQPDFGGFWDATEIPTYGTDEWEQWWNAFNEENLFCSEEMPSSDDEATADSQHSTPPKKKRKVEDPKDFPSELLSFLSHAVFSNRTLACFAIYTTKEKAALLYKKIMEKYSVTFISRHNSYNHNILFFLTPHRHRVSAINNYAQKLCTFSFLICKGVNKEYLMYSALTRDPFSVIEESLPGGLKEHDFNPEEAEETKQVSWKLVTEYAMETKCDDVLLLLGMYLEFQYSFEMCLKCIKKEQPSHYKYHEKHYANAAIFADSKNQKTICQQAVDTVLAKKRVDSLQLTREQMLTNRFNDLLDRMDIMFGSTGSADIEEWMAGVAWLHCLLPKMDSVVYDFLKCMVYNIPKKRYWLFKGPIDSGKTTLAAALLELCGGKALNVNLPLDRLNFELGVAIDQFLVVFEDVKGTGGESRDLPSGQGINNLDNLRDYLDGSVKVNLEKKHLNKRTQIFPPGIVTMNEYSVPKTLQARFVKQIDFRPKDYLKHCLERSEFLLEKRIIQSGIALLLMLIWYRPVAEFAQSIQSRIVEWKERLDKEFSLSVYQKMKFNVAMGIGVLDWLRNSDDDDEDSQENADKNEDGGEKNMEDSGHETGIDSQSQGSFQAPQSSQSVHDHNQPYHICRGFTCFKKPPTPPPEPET
# Induced myeloid leukemia cell differentiation protein Mcl-1, sequence (Q07820 whole entry): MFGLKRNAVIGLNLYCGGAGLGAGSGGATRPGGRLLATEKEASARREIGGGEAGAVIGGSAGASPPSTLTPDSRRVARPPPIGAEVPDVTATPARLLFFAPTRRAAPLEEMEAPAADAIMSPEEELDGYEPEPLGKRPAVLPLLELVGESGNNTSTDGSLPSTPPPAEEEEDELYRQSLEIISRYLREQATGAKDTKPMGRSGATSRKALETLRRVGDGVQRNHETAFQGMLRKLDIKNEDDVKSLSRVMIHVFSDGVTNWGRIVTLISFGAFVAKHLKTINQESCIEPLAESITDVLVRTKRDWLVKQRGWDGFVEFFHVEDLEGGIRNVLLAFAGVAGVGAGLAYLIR
# Cytochrome P450 2C19, sequence (P33261 whole entry): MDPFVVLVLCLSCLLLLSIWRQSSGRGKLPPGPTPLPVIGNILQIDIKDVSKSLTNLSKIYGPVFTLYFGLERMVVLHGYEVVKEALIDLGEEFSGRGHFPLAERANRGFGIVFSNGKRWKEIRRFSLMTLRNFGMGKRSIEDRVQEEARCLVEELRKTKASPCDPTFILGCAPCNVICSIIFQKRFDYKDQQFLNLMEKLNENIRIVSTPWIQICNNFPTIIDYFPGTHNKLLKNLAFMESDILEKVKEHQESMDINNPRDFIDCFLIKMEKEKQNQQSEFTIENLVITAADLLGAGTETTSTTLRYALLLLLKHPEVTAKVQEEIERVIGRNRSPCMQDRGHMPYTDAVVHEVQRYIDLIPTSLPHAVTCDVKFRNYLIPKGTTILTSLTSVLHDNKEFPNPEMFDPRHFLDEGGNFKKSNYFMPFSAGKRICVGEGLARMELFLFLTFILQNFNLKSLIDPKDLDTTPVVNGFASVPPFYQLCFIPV
compound,measurement,setting,value
COc1ccccc1Nc1nc(-c2sc(NC(=O)c3ccc([N+](=O)[O-])cc3)nc2C)cs1,IC50,[1],0.449 µM (active)
same,AC50,Cytochrome P450 2C19,1.58 µM (inconclusive)
same,AC50,Cytochrome P450 2C9,3.55 µM (inconclusive)
C/C=C/c1ccc([C@H]2[C@@H](CO)N(Cc3ccccn3)[C@H]2CNC(=O)CC)cc1,AC50,[2],53.3 µM (active)
O=C(NCc1nc2ccccc2[nH]1)C1=C[C@H](C2CCCCC2)C[C@H](OCc2ccc(CO)cc2)O1,IC50,Protein skinhead-1,> 100 µM (inactive)
same,CC50,Vero,16.1 µM (active)
COc1cc(NC(=O)c2csc(N)n2)cc(C(=O)Nc2cccc(C(F)(F)F)c2)c1,EC50,[3],4.71 µM (active)
same,EC50,BJ [4],52.4 µM (inconclusive)
same,AC50,[5],2.19 µM (active)
same,EC50,BJ [6],111 µM (active)
same,EC50,BJ [7],8.47 µM (inconclusive)
C[C@@]12CC[C@H]3[C@@H](CCC4=CC(=O)CC[C@]43C)[C@H]1CC[C@H]2C(=O)CO,AC50,Cytochrome P450 3A4,inconclusive
C#CC[N+](CC)(CC)CC#Cc1cccc(Cl)c1.[Br-],AC50,Cytochrome P450 3A4,inconclusive
same,AC50,Cytochrome P450 2D6,2.24 µM (inconclusive)
COc1ccc(NC2CC(=O)N(CCc3ccccc3)C2=O)cc1 (configuration not stated),IC50,Protein skinhead-1,> 100 µM (inactive)
COc1ccc(C(=O)C2CCCN(Cc3cccn3-c3ccccn3)C2)c(OC)c1 (configuration not stated),AC50,[2],21.8 µM (active)
O=C(/C=C/c1ccc(Cl)cc1)Nc1ccc(CN2CCOCC2)cc1,IC50,Protein skinhead-1,14.3 µM (active)
S=C1SCN(Cc2cccnc2)CN1Cc1cccnc1,EC50,[3],8.06 µM (inconclusive)
same,EC50,BJ [4],4.49 µM (active)
same,EC50,[8],> 195 µM (not active)
same,AC50,[9],4.53 µM (active)
same,EC50,BJ [6],26.1 µM (active)
same,EC50,BJ [7],2.48 µM (active)
same,CC50,Vero,10.4 µM (active)
same,AC50,Paired box protein Pax-8,3.62 µM (active)
Cc1nc2ccc3nc(NC(=O)c4ccc(S(=O)(=O)N5CCOCC5)cc4)sc3c2s1,AC50,Cytochrome P450 3A4,inconclusive
CCSc1ncnc2c1sc1nc(-c3ccco3)c3c(c12)CC(C)(C)OC3,AC50,Cytochrome P450 3A4,inconclusive
same,AC50,Cytochrome P450 2C9,2 µM (inconclusive)
Cc1nc(Oc2ccccc2)c2oc3ccccc3c2n1,IC50,Protein skinhead-1,> 100 µM (inactive)
CC[C@]1(C(=O)OC)[C@H]2C(=O)N(Cc3ccccc3)C(=O)[C@H]2[C@H]2CN=C(SCc3ccc(C)cc3)N21,AC50,[10],2.43 µM (active)
same,AC50,[11],1.56 µM (active)
same,AC50,[12],3.41 µM (active)
same,AC50,[13],3.14 µM (active)
C[C@@H]1CN([C@H](C)CO)C(=O)c2cccc(NS(=O)(=O)c3cccs3)c2O[C@@H]1CN(C)Cc1ccc(C(F)(F)F)cc1,AC50,[10],< 0.26 µM (active)
same,AC50,[11],< 0.26 µM (active)
same,AC50,[12],2.1 µM (active)
COc1ccc(/C=C/C(=O)c2nc3ccccc3n2CC(=O)c2ccc(OC)cc2)cc1,IC50,Protein skinhead-1,> 100 µM (inactive)
C[C@H]1CN([C@@H](C)CO)C(=O)Cc2cc(NC(=O)Cc3cn(C)c4ccccc34)ccc2O[C@H]1CN(C)Cc1ccc(C(F)(F)F)cc1,AC50,[14],1.81 µM (active)
O=C(Oc1ccccc1)N1CCC2(CC1)CCN(c1ccccc1)CC2,AC50,Cytochrome P450 3A4,inconclusive
Clc1ccc2c(c1)c1cc(Cl)ccc1n2CN1CCOCC1,IC50,Protein skinhead-1,74.5 µM (inactive)
same,CC50,[15],17.9 µM (active)
CCOc1cc(/C=C2/C(=N)N3N=C(c4ccccc4)SC3=NC2=O)ccc1O,IC50,[1],3.61 µM (active)
same,IC50,Aminopeptidase N,30.1 µM (active)
same,IC50,Large T antigen,10.2 µM (active)
CCOC(=O)c1c(C)c(C)n2c1NC(=O)C2,IC50,Protein skinhead-1,> 100 µM (inactive)
Cc1ccc2c(c1)[C@H]1[C@H](CO2)[C@H](c2ccccc2)[C@]2(C)C(=O)N(CC3CCCO3)CC(=O)N12 (some centres not stated),AC50,[10],2.63 µM (active)
same,AC50,[11],2.05 µM (active)
same,AC50,[12],9.2 µM (active)
same,AC50,[13],4.49 µM (active)
N#Cc1ccc(CN2CCC3(CC2)CCN(C(=O)Oc2ccccc2)CC3)cc1,AC50,Cytochrome P450 3A4,inconclusive
C[C@H](CO)N1C[C@H](C)[C@H](CN(C)S(=O)(=O)c2ccccc2)Oc2ccc(NC(=O)Nc3ccc(C(F)(F)F)cc3)cc2C1=O,AC50,[14],1.62 µM (active)
CC(=O)O[C@H]1CC[C@@]2(C)[C@@H](CC[C@H]3[C@H]2CC(=O)[C@@]2(C)[C@@H]3C[C@H]3CC(C)=CC(=O)[C@H]32)C1,AC50,Cytochrome P450 3A4,inconclusive
Cc1ccc(S(=O)(=O)Nc2ccc3c(c2)CC(=O)N([C@@H](C)CO)C[C@@H](C)[C@@H](CN(C)Cc2ccc(C(F)(F)F)cc2)O3)cc1,AC50,[14],2.03 µM (active)
O=C1[C@H]2[C@@H](C3CC3)N3C(=O)CN(CC4CC4)C(=O)[C@@]3(Cc3ccccc3)[C@H]2C(=O)N1c1ccccc1,AC50,[10],1.76 µM (active)
same,AC50,[11],3.84 µM (active)
same,AC50,[12],1.69 µM (active)
same,AC50,[13],3.51 µM (active)

# Source: ChEMBL document CHEMBL1201862, “PubChem BioAssay data set” (2004)
